Test results from patent US20190054054A1, “Methods reducing or preventing oxidation of high density lipoprotein (HDL)” (Amarin Pharmaceuticals Ireland Limited, priority 2017, published 2019).

Legend:
[1] = Glucose-induced membrane lipid peroxidation (LOOH, CHOD-iodide assay) in DLPC/cholesterol vesicles (Examples 4 and 5); type: biochemical; settings: for inhibition of the peroxidative effects of glucose (LOOH formation) / effect on LOOH formation / lipid peroxidation (FIG. 3): 1:30 drug-to-phospholipid mole ratio; for effect on LOOH formation / lipid peroxidation (FIG. 3): glucose, 72- and 96-hour time points
Procedure: Vitamin E (α-tocopherol) was also purchased from Sigma-Aldrich and prepared in ethanol at 1.0 mM (e=[…] at 294 nm) just prior to experimental use. […] All test compounds were further diluted in ethanol or aqueous buffer as needed. Glucose was prepared in saline buffer (0.5 mM HEPES, 154 mM NaCl, pH 7.3) at 11.0 mM (200 mg/dL). CHOD-iodide color reagent (stock) was prepared, with slight modification, as described by from El-Saadani et al. (J. […] Samples were shell-dried under nitrogen gas and placed under vacuum for 1 h to remove residual solvent. […] Lipid suspensions were then vortexed for 3 min at ambient temperature to form MLVs. All MLV samples were subjected to time-dependent autoxidation by incubating at 37° C. in an uncovered, shaking water bath. This method allows lipid peroxidation to occur gradually without requiring the use of exogenous initiators. Small aliquots (5-100 μL) of each sample were removed, immediately following MLV preparation (0 hour) and after exposing samples to oxidative conditions for 72 or 96 hour, and combined with 1.0 mL of activated CHOD-iodide color reagent. Aliquot volume was reduced with each successive time point to ensure that spectrophotometric readings were within the optimal adsorption range. Test samples were covered and incubated in darkness at room temperature for at least 4 hr. Sample absorbances were then measured against a CHOD blank at 365 nm using a Beckman DU-640 spectrophotometer. The CHOD colorimetric assay is based on the oxidation of iodide (I^−) by lipid hydroperoxide (LOOH) to form triiodide (I3^−), the quantity of which is directly proportional to the amount of LOOH present in the lipid sample. The molar absorptivity (ε) of I3^− is 2.46×10^4 M^−1 cm^−1 at 365 nm. An experiment was conducted to compare the ability of EPA to prevent lipid hydroperoxide formation in model membranes treated with glucose to two other 20-carbon fatty acids: eicosanoic acid (“EA,” also referred to as arachidic acid, C20:0) and eicosatrienoic acid (“ETE,” C20:3, n-3). All MLV samples were subjected to time-dependent autoxidation by incubating at 37° C. in an uncovered, shaking water bath. This method allows lipid peroxidation to occur gradually without requiring the use of exogenous initiators. Small aliquots (5-100 μL) of each sample were removed, immediately following MLV preparation (0 hr) and after exposing samples to oxidative conditions for 72 or 96 hr, and combined with 1.0 mL of activated CHOD-iodide color reagent. Aliquot volume was reduced with each successive time point to ensure that spectrophotometric readings were within the optimal adsorption range. Test samples were covered and incubated in darkness at room temperature for at least 4 hr. Sample absorbances were then measured against a CHOD blank at 365 nm using a Beckman DU-640 spectrophotometer. The CHOD colorimetric assay is based on the oxidation of iodide (I^−) by lipid hydroperoxide (LOOH) to form triiodide (I3^−), the quantity of which is directly proportional to the amount of LOOH present in the lipid sample. The molar absorptivity (ε) of I3^− is 2.46×10^4 M^−1 cm^−1 at 365 nm.

HUVECs = test: NO and ONOO^− release from pretreated HUVECs exposed to native LDL undergoing oxidation (Example 11, Objective 3); type: cell-based, human; settings: cells pretreated 30 min, agents each at 10 μM; native LDL 11 mg/dL pretreated with the same agents under auto-oxidation; 60 min
Procedure: The omega-3 fatty acid, cis-5,8,11,14,17-eicosapentaenoic acid (EPA) and docosahexaenoic acid (DHA) were purchased from Sigma-Aldrich (Saint Louis, Mo.) and solubilized in redistilled ethanol to 11 mM under nitrogen atmosphere. EPA and DHA stock solutions were stored at −20° C. until use.
Human umbilical vein endothelial cells (HUVECs) were obtained from healthy, female donors and isolated into primary, proliferating cell cultures (Clonetics, San Diego, Calif.). The cells were incubated in 95% air/5% CO2 at 37° C. and passaged by an enzymatic (trypsin) procedure. The confluent cells (4 to 5×10^5 cells/35 mm dish) were plated with minimum essential medium containing 3 mM L-arginine and 0.1 mM BH4 [(6R)-5,6,7,8-tetrahydrobiopterin]. Before experimental use, the cells (from second or third passage) were rinsed twice with Tyrode-HEPES buffer with 1.8 mM CaCl2.
Venous blood was collected from healthy volunteers into vacutainer tubes containing sodium EDTA. Plasma was separated by centrifugation at 3000 g for 25 min at 4° C. and adjusted to a density of 1.020 g/mL with KBr. Triglyceride-rich lipoproteins (TGRL) and LDL fractions were isolated by sequential centrifugation at 70,000 rpm at 4° C. in a Beckman LE-80 ultracentrifuge using a Beckman 50.4Ti rotor (Beckman Coulter, Inc., Fullerton, Calif.). The TGRL fraction (with a relative density of <1.020) was aspirated from the top of the centrifugate and discarded, leaving an LDL-enriched infranate (with a relative density of 1.020-1.063). The LDL subfraction was retained for additional experimentation. Plasma and lipoprotein fractions were maintained at 4° C. and protected from excessive exposure to light. Prior to oxidation experiments, EDTA was removed from the lipoprotein fraction using PD-10 desalting columns (GE Healthcare, Piscataway N.J.). After equilibration of the column with phosphate buffered saline (PBS), 2.5 mL of the lipoprotein fraction was loaded on the column and the flow-through discarded. The lipoprotein was then eluted with 3 mL of PBS. The LDL fractions were further diluted with PBS to obtain a 100 μg/mL apoB100 concentration.
LDL underwent oxidation following the addition of 10 μM CuSO4. […] Sample TBARS concentrations were determined spectrophotometrically by measuring sample absorbances against a standard curve derived from the hydrolysis of 1,1,3,3-tetramethoxypropane. […]
The amperometric method (with a response time of 0.1 ms) provides a quantitative signal (current) that is directly proportional to changes (from basal levels) in NO or ONOO^− concentration. […] Basal NO or ONOO^− levels were measured by differential pulse voltammetry in separate experiments. […]

SMILES	inhibition of the peroxidative effects of glucose (LOOH formation) ([1]; glucose 200 mg/dL, 72 hours) [%]	inhibition of the peroxidative effects of glucose (LOOH formation) ([1]; glucose 200 mg/dL, 96 hours) [%]	effect on LOOH formation / lipid peroxidation (FIG. 3) [1]	membrane LOOH formation, dose dependence ([1]; EPA at 1.0 and 5.0 μM, glucose-treated)	LOOH formation compared to vehicle only, glucose only, glucose and EA, or glucose and ETE ([1]; Example 5, 72 and 96 hr)	antioxidant effect, separate treatments ([1]; each at 1.0 μM, glucose 200 mg/dL, 96 hours)	NO (HUVECs)	ONOO^− (HUVECs)
CC/C=C\C/C=C\C/C=C\C/C=C\C/C=C\CCCC(=O)O [EPA, cis-5,8,11,14,17-eicosapentaenoic acid]	88	86	significantly inhibited LOOH formation	inhibit membrane LOOH formation in a dose-dependent manner	significantly less LOOH formation	separate and potent antioxidant effects	419 ± 37	207 ± 24
CC/C=C\C/C=C\C/C=C\C/C=C\C/C=C\C/C=C\CCC(=O)O [DHA, docosahexaenoic acid]	–	–	–	–	–	–	406 ± 40	212 ± 26
Cc1c(C)c2c(c(C)c1O)CC[C@@](C)(CCC[C@H](C)CCC[C@H](C)CCCC(C)C)O2 [vitamin E, α-tocopherol]	–	–	no significant effect on lipid peroxidation	–	–	–	–	–
